What follows are substances tested on a strand of SEQ ID NO:1 (assay: Specific hybridization of LDLR adaptin domain-encoding polynucleotides under stringent conditions). Details: CC domain encoding polynucleotides; Conditions I and/or II.
Assay type: binding, human
Parameters: key: +: hybridize with a strand of SEQ ID NO:1 under Conditions I and/or II
Excerpt: These natural sequence LDLR adaptin polynucleotides provide hybridization probes and replication/amplification primers having a disclosed LDLR adaptin domain encoding cDNA sequence or fragments thereof sufficient to effect specific hybridization thereto. Such primers or probes are at least 12, preferably at least 24, more preferably at least 36 and most preferably at least 96 bases in length.

Substance	Hybridization
SEQ ID NO:1, nucleotides 784-809: LDLR adaptin CC domain encoding polynucleotide (DNA CTTGCCCAGTCTCGGACAAACCCTCA; chemistry not given here)	+
SEQ ID NO:1, nucleotides 799-824: LDLR adaptin CC domain encoding polynucleotide (DNA ACAAACCCTCAGGTCCTGGACACTGG; chemistry not given here)	+
SEQ ID NO:1, nucleotides 801-828: LDLR adaptin CC domain encoding polynucleotide (DNA AAACCCTCAGGTCCTGGACACTGGCCTG; chemistry not given here)	+
SEQ ID NO:1, nucleotides 775-789: LDLR adaptin CC domain encoding polynucleotide (DNA TTTTCGAGGCTTGCC; chemistry not given here)	+
SEQ ID NO:1, nucleotides 742-770: LDLR adaptin CC domain encoding polynucleotide (DNA GTCTGGGAGCTGGATGATGGCCTGGATGA; chemistry not given here)	+

Same assay, conditions: PTB domain encoding polynucleotides; Conditions I and/or II

Substance	Hybridization
SEQ ID NO:1, nucleotides 345-368: LDLR adaptin PTB domain encoding polynucleotide (DNA GATCTCCTATTGCACAGCAGACAA; chemistry not given here)	+
SEQ ID NO:1, nucleotides 297-320: LDLR adaptin PTB domain encoding polynucleotide (DNA GACAGACAACCTCACCAACCAGCT; chemistry not given here)	+
SEQ ID NO:1, nucleotides 142-164: LDLR adaptin PTB domain encoding polynucleotide (DNA TTCAGCCTCAAGTACCTGGGCAT; chemistry not given here)	+
SEQ ID NO:1, nucleotides 249-272: LDLR adaptin PTB domain encoding polynucleotide (DNA GAAGCTGCAGAAGGTGACTCTGAA; chemistry not given here)	+
SEQ ID NO:1, nucleotides 417-440: LDLR adaptin PTB domain encoding polynucleotide (DNA GAGCCTCGAGTGCCACGCCTTCCT; chemistry not given here)	+
SEQ ID NO:1, nucleotides 321-344: LDLR adaptin PTB domain encoding polynucleotide (DNA CATTGAGAACGTGTCCATATACAG; chemistry not given here)	+
SEQ ID NO:1, nucleotides 185-218: LDLR adaptin PTB domain encoding polynucleotide (DNA AGGGTGAGGAGCTGTCGGCCGCCGCCATCAAGAG; chemistry not given here)	+
SEQ ID NO:1, nucleotides 393-416: LDLR adaptin PTB domain encoding polynucleotide (DNA CATCGCCCAGAGCCAGCACAACCA; chemistry not given here)	+
SEQ ID NO:1, nucleotides 442-465: LDLR adaptin PTB domain encoding polynucleotide (DNA TGCACCAAGCGGAAGATGGCACAG; chemistry not given here)	+
SEQ ID NO:1, nucleotides 491-511: LDLR adaptin PTB domain encoding polynucleotide (DNA CCTTCAAAGTCGCCTTTGAGT; chemistry not given here)	+
SEQ ID NO:1, nucleotides 511-525: LDLR adaptin PTB domain encoding polynucleotide (DNA TTTTGGCAGGTGTCC; chemistry not given here)	+
SEQ ID NO:1, nucleotides 369-392: LDLR adaptin PTB domain encoding polynucleotide (DNA GATGCACGACAAGGTGTTTGCATA; chemistry not given here)	+
SEQ ID NO:1, nucleotides 263-286: LDLR adaptin PTB domain encoding polynucleotide (DNA TGACTCTGAAGGTGTCGCCACGGG; chemistry not given here)	+

The substances below were run against T1, GST-PTB domain fusion protein (Homo sapiens, UniProt Q5SW96) (assay: Fluorescence polarization binding of fluorescent LDLR peptide probe to the PTB domain). Details: after 5 min at 4° C.
T1 construct: made in house
T1 sequence (Q5SW96 48-175): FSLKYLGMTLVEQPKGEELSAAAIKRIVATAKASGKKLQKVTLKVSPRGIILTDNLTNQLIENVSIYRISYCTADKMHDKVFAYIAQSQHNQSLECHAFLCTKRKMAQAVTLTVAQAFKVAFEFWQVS
Description: Peptide binding to the GST-PTB domain fusion protein is measured by using fluorescence polarization (also known as fluorescence anisotropy; Li, et al. 1997 Proc. Natl. Acad. Sci. USA 94:7204-7209) is a protocol adapted from Howell et al. 1999 Mol Cell Biol 19, 5179-5188. A16-mer LDLR peptide (acetyl-SINFDNPVYQKTTEDE-amide, residues 820-835 of SEQ ID NO:8) and its phosphorylated analog (phosphate on the tyrosine) are synthesized with an AMS 222 Multiple Peptide Synthesizer using TenetaGel S resin (Rapp Polymere) and purified by high-pressure liquid chromatography. Peptide concentrations are determined by spectrophotometry and confirmed by amino acid analysis. […] Reactions are stopped with 5 μmol of Tris HCl (pH 8.0) and analyzed by thin-layer chromatography (Silica gel 60; methanol-acetic acid-water [4:1:1]). […] Based on fluorescence intensity, the fluorescent peptide (probe) concentration in binding reaction mixtures was estimated to be 20 nM.
Binding measurements are performed in a Beacon 2000 Variable Temperature Fluorescence Polarization System (PanVera Corporation). Essentially, a constant concentration of fluorescent probe peptide is incubated with various concentrations of the GST-PTB domain or GST in 100 μl of 0.5% Triton X-100-20 mM glutathione-200 mM Tris HCl (pH 8.0) at 4° C. and fluorescence polarization is measured. […]

Substance	Binding, percent of maximum
acetyl-SINFDNPVYQKTTEDE-amide (Ac-SINFDNPVYQKTTEDE-NH2; also: fluorescein-C6 label, site not given here) [fluorescent probe peptide]	95%

Same assay, conditions: linear Hill plot, noncooperative binding

Substance	Hill plot slope
acetyl-SINFDNPVYQKTTEDE-amide (Ac-SINFDNPVYQKTTEDE-NH2; also: fluorescein-C6 label, site not given here) [fluorescent probe peptide]	1.0

Reference: patent US6465196B1, “Drug screen for identifying an agent that modulates low density lipoprotein receptor adaptin-ligand binding” (Board of Regents, The University of Texas System, priority 2001, dated 2002)
